Results published in patent US10786521B2, “Methods and compositions for treatment of COPD diseases” (Shanghai KE Pharmaceutical Co., LTD, priority 2014, dated 2020).

Columns and labels:
[1] = system: cytosolic calcium in primary airway smooth muscle cells; assay: Calcium image (Fluo-4) of primary airway smooth muscle cells stimulated with acetylcholine; assay type: cell-based; details: 10 μM compound, then 100 μM acetylcholine; around 16 to 18 minutes
Experimental: Primary airway smooth muscle cells were stimulated with 100 μM acetylcholine (ACh) (upper panels), resulting elevation and maintenance of calcium signals (arrow heads indicate typical alteration of the cells) for 8 minutes. After washing out ACh, new buffer containing 10 μM Kudinoside D was added, and then stimulated with 100 μM acetylcholine.
Calcium image (1-3): Ca^2+ signal was measured by recording 488 nm laser excited Fluo-4 fluorescence with a laser confocal microscope (FV-1000, Olympus). After 3 times washing with D-Hanks solution, primary cultured airway smooth muscle cells were loaded with 2.5 μM Fluo-4 AM and 0.02% pluronic acid (F127) in D-Hanks for 30 min at room temperature. Then washed 3 times with D-Hanks, incubated in H-T buffer at 37° C. for 40 min. Ca^2+ signal was measured by recording 488 nm laser excited Fluo-4 fluorescence with a laser confocal microscope (FV-1000, Olympus).

[2] = system: asthmatic airway constriction in acute asthma mouse model; assay: Airway resistance (Rrs, FlexiVent) in OVA-induced, methacholine-challenged asthma mice; assay type: in vivo, C57BL/6 mice
Experimental: Asthma mice were established as reported previously. Briefly, six to eight-week-old female C57BL/6 mice were carried out by intraperitoneal injection of 100 μg ovalbumin and 4 mg Imject Alum (ThermoFisher Scientific) in total volume of 0.2 mL on days 0 and 14. These mice were then challenged with 1.5%-2% aerosolized ovalbumin for 1 h on days 24, 25 and 26. The efficacy of drugs was evaluated by measuring airway resistance in these mice 24 h after the last challenge.
(§1) The airway resistance was measured through an invasive method as described in previous reports. In brief, the mice were anesthetized with 240 mg/kg Avertin and the trachea was cannulated with an 18-gauge metal needle. Mechanical ventilation (FlexiVent; SCIREQ Inc., Montreal, Canada) was applied at a frequency of 150 breaths per minute, a tidal volume of 10 ml/kg, and positive end-expiratory pressure of 2.5 cm H2O. Prior to methacholine challenge, deep inflation was applied followed by administration of aerosolized PBS to obtain stabilization of airway resistance (Rrs, cmH2O·s/mL). The Rrs after PBS was considered to be the baseline. Then mice were challenged with sequential concentrations of methacholine with a dose of 2.0, 4.0, 8.0, 16, 32 and 64 mg/mL by an ultrasonic nebulizer until reaching bronchoconstrictive phase that was four to five folds greater than baseline. Three minutes after the last dose of methacholine inhalation, the reagents were delivered by the same ultrasonic nebulizer. The Rrs measurements were performed every 30 s throughout the experiments. The negative control for these studies was PBS, because all the solvents for reagents used here were PBS. As a positive control, albuterol (3 μg; Sigma), the most widely used β-agonist as an effective bronchodilator for asthma therapy, was used.
as §1, with “Acute asthma model mice were established as reported previously. Briefly, six to eight-week-old female C57BL/6 mice were carried out by intraperitoneal injection of 100 μg ovalbumin and 4 mg Imject Alum (ThermoFisher Scientific) in total volume of 0.2 mL on days 0 and 14. These mice were then challenged with 1.5%-2% aerosolized ovalbumin for 1 h on days 24, 25 and 26. The efficacy of drugs by measuring airway resistance in these mice 24 h was evaluated after the last challenge. The airway” for “The airway”

C[C@@H]1O[C@@H](O[C@H]2[C@H](O[C@H]3CC[C@@]4(C)C(CC[C@]5(C)C4C=CC4=C6[C@]7(CC[C@](C)(OC7=O)[C@@]6(C)O)CC[C@]45C)C3(C)C)OC[C@H](O)[C@@H]2O[C@@H]2O[C@H](CO)[C@@H](O)[C@H](O)[C@H]2O)[C@H](O)[C@H](O)[C@H]1O (stereo partly drawn) [Kudinoside D]
cytosolic calcium signal after acetylcholine stimulation [1]: significant reduction of calcium
reduction of airway resistance, 0.03 μg ([2]; 0.03 μg inhaled): slight reduction
airway resistance reduced to, at 1 minute after inhalation, 0.03 μg ([2]; 0.03 μg inhaled, 1 minute): 69.65±5.87%
reduction of airway resistance, 0.3 μg ([2]; 0.3 μg inhaled): significant reduction of airway resistance
airway resistance reduced to, at 1 minute after inhalation, 0.3 μg ([2]; 0.3 μg inhaled, 1 minute): 67.79±6.77%
reduction of airway resistance at 3 minutes after inhalation compared with 3 μg albuterol, 0.3 μg ([2]; 0.3 μg inhaled, 3 minutes): more reduction of airway resistance than that of 3 μg of albuterol
reduction of airway resistance, 3 μg ([2]; 3 μg inhaled): significant reduction of airway resistance
airway resistance reduced to, at 1 minute after inhalation, 3 μg ([2]; 3 μg inhaled, 1 minute): 45.81±6.87%
reduction of airway resistance at 3 minutes after inhalation compared with 3 μg albuterol, 3 μg ([2]; 3 μg inhaled, 3 minutes): more reduction of airway resistance than that of 3 μg of albuterol
